Results published in patent publication US20100129289A1, “COMPOSITIONS AND METHODS FOR THE DETECTION OF VULNERABLE PLAQUE” (THE OHIO STATE UNIVERSITY RESEARCH FOUNDATION, priority 2006, published 2010).
Entries after “also recorded” stand apart in the source; their conditions may differ. Values belong to the substance of their own block, whether it stands above or below them. Ends that are not written are not given here. * marks the point of attachment. Biotin = O=C1N[C@H]2[C@H](CS[C@H]2CCCCC(=O)*)N1

Tests used:
[1] = tested on: aorta of ApoE knockout mice; assay: ApoE knockout mice in vivo peptide binding assay; parameters: species or system mouse; conditions: 1 hour circulation, SA-HRP or anti-FLAG-HRP with DAB
Protocol: In the peptide binding assays, individual peptides are injected into an anesthetized mouse and allowed to circulate in vivo for 1 hour. Note that this is different from the WHHL/NZW binding assays where the aorta is first resected and then incubated with peptide. The animal is then fixed via cardiac perfusion with 4% formaldehyde, and the aorta is removed to test for binding of the peptide. The detection assay is the same assay described herein: either SA-HRP or anti-FLAG-HRP is added to the solution containing the resected tissue, followed by the addition of the DAB substrate, after which the tissue samples are sectioned and imaged.

[2] = tested on: WHHL rabbit aortic tissue (intima); assay: Resected WHHL rabbit aortic tissue peptide binding assay; conditions: for positive binding / staining on WHHL tissue samples: five to seven tissue samples per peptide; for staining on WHHL tissue, original versus randomized sequence: one experiment on a WHHL rabbit, FIGS. 14 and 15; for staining on WHHL aortic tissue: overall statement across experiments; for staining of corresponding WHHL tissue samples: sections FIG. 10(c) (peptide 4) and FIG. 11(a) (peptide 3); for staining of individual WHHL tissue sections: sections FIG. 10(d) (peptide 4) and FIG. 11(b) (peptide 3)
Protocol: (§1) Experiments were performed to determine if the synthesized peptides could bind to the intima of the WHHL (diseased) rabbits but not to the NZW (control) rabbits. The following procedure is shown schematically in FIG. 2. The animals were anesthetized, injected with 0.7-1.0 mL heparin, and perfused with 200-300 mL Hanks buffered salt solution containing 1% BSA. A segment of the aorta comprising the aortic arch to the bifurcation of the aorta in the lower abdomen was removed and placed in a buffer solution of Hanks w/1% BSA and 1% protease inhibitor cocktail (Sigma, P8340). The aorta segments were opened longitudinally and sliced into individual pieces approximately 1-2 mm^2 each. These pieces were then placed into tubes containing individual peptides at a concentration of 5 μg/mL in the same buffer solution described above.
(§2) The tissue sections were incubated with individual peptides for 45-60 minutes at room temperature. Samples were washed 3× with PBS followed by incubation with SA-HRP or anti-FLAG-HRP in the same buffer for 45-60 minutes at room temperature. After another 3× washing, the samples were incubated with DAB for 30 minutes in the same buffer. After a final round of washing, tissue samples were imaged with a dissecting microscope and analyzed for the presence of brown staining on the endothelial surface. […] Some tissue sections received no peptide incubation; rather they were exposed only to SA-HRP or anti-FLAG-HRP as a control.

[3] = tested on: atherosclerotic lesion endothelium of ApoE knockout mice; conditions: mouse; cited from earlier work
[4] = tested on: human atherosclerotic lesions; conditions: cited from earlier work
[5] = tested on: NZW rabbit aortic tissue (intima); assay: Resected NZW rabbit aortic tissue peptide binding assay; conditions: for staining / binding on NZW tissue: peptide 9 at 1× concentration, FIG. 12
Protocol: as §1, §2

[6] = tested on: frozen WHHL aorta tissue sections; assay: Direct staining on frozen WHHL rabbit tissue sections; format: binding; conditions: for staining of frozen WHHL aorta tissue sections: peptide 1 μg/mL, 4 μm sections, FIG. 22
Protocol: Some of the resected WHHL and NZW aortic arch tissues were frozen and sectioned into 4 μm slices. Binding assays were performed on these frozen sections in a similar manner to that described herein. Sections were thawed and incubated with blocking buffer (Hanks w/1% BSA) for 30 minutes. Individual peptides were added to the slides in blocking buffer at a concentration of 1 μg/mL. After 45 minutes of incubation, the slides were washed and either SA-HRP or anti-FLAG-HRP, depending on the modification of the peptides, was added at the recommended concentration and allowed to incubate for 1 hour. The slides were washed again, and the DAB substrate was added and incubated for 30 minutes while looking for brown color development. After washing away the DAB, the tissue samples were fixed with 10% buffered formalin for 10 minutes followed by counterstaining with hemotoxylin. The slides were then mounted with permount and glass coverslips for imaging. The standard SA-HRP and anti-FLAG-HRP controls were performed for these experiments as well.

[7] = tested on: WHHL rabbit aortic tissue (intima); assay: Resected WHHL rabbit aortic tissue peptide binding assay
[8] = tested on: lipid-loaded HAECs; assay: Lipid-loaded HAEC peptide binding assay; format: cell-based, human; conditions: peptide 1, 5 or 100 μg/mL; SA-HRP or anti-FLAG-HRP with DAB
Protocol: Human aortic endothelial cells (HAECs) were loaded with acetylated low-density lipoprotein as described herein. Peptide binding assays were performed 24 hours after the third lipid-loading of the cells. Control cells grown in the standard media without added lipid were cultured for the same amount of time as the lipid-loaded HAECs.
The general procedure for the peptide binding assays was conducted as follows (see FIG. 1). Variations on this method will be discussed as well. Both the lipid- and non-lipid-loaded cells were imaged prior to the assays to verify morphological differences between the two conditions of the cells. The media was aspirated and cells were washed 3× with cold wash buffer (PBS w/Ca^2+, […] with 2% FBS), followed by a 5 minute incubation on ice to minimize internalization of peptides. Cold blocking buffer (PBS w/1% BSA) was added to the cells for 15 minutes to prevent nonspecific binding. Peptides were then added to the cells in cold blocking buffer at 1, 5, or 100 μg/mL and incubated for 1 hour on ice. Following incubation, cells were washed 3×, and either streptavidin horseradish peroxidase (SA-HRP) or anti-FLAG horseradish peroxidase (anti-FLAG-HRP) was added to the cells in cold blocking buffer at the recommended concentrations provided by the manufacturers. […]

[9] = 10× concentration (˜100 μg/mL) versus 1×, FIG. 13

positive binding / staining on WHHL tissue samples ([2]; Exp217 (FIG. 19)): stained
Substance: CAPGPSKSC (cysteine pairing not given here; also: N-terminal biotin or C-terminal FLAG, which one not given here) [Peptide 12]
binding to atherosclerotic lesion endothelium of ApoE knockout mice in vivo [3]: bound
binding to human atherosclerotic lesions ex vivo [4]: bound

positive binding / staining on WHHL tissue samples ([2]; Exp217 (FIG. 19)): stained
Substance: CKSDANSHC [Peptide 2]

positive binding / staining on WHHL tissue samples ([2]; Exp223 (FIG. 21)): some staining
Substance: TDTTMGQVHRHP [Peptide 37]

staining / binding on NZW tissue [5]: no binding
staining on WHHL aortic tissue [2]: above-average reproducible staining
staining of corresponding WHHL tissue samples [2]: very little, if any, brown staining
staining of individual WHHL tissue sections [2]: good staining
Substance: YITPYAHLRGGN [Peptide 4]

positive binding / staining on WHHL tissue samples ([2]; Exp223 (FIG. 21)): some staining
Substance: CHPASSPQC [Peptide 34]

staining on WHHL tissue at 10-fold increased concentration [7, 9]: increases dramatically
binding to regions of plaque, dependence on dose ([2]; WHHL aortic tissue): dose-dependent manner
staining on WHHL aortic tissue [2]: consistently shows staining
Substance: TQTPIKHHLLKE [Peptide 9]
binding to frozen tissue samples ([6]; frozen WHHL and NZW tissue): showed binding
staining of frozen WHHL aorta tissue sections [6]: strong brown staining on the surface; also recorded: stains the intimal surface
staining on NZW tissue at 10-fold increased concentration [5, 9]: remains the same as the staining seen with the 1× concentration
staining / binding on NZW tissue [5]: some slight staining; also recorded: light, distinct staining pattern; also recorded: slight background staining
binding to aorta after in vivo circulation of peptide [1]: did not yield positive results
staining on WHHL aortic tissue relative to anti-FLAG-HRP control sections ([7]; 1× concentration (˜10 μg/mL), FIGS. 8 and 9, two WHHL rabbits): more total staining, and the staining is very distinct
location of staining in sectioned WHHL aorta ([2]; histological sections, Hoechst stain, 400×, FIG. 16): localized to the intimal layer, with no infiltration into the plaque region; also recorded: localized to the intimal layer of the aorta
staining over plaque versus non-plaque regions of WHHL aorta ([2]; histological sections, FIG. 17): present on intima covering regions of plaque but not over non-plaque regions; also recorded: seen over plaque-rich regions
staining on WHHL tissue, original versus randomized sequence [2]: stronger than the staining seen from peptide 9R

binding to lipid-loaded HAECs (brown staining) [8]: negative result for binding
Substance: TAPHHSTPANVP [Peptide 17]

positive binding / staining on WHHL tissue samples ([2]; Exp201 (FIG. 18)): showed staining on one tissue sample
Substance: CNKNSIPHC [Peptide 20]

positive binding / staining on WHHL tissue samples ([2]; Exp219 (FIG. 20)): some staining
Substance: APHYLKTAPPPN [Peptide 28]

positive binding / staining on WHHL tissue samples ([2]; Exp201 (FIG. 18)): showed staining on one tissue sample
Substance: CVMPGLKNC [Peptide 10]

positive binding / staining on WHHL tissue samples ([2]; Exp201 (FIG. 18)): showed staining on one tissue sample
positive binding / staining on WHHL tissue samples ([2]; Exp219 (FIG. 20)): some staining
Substance: SSSKMQAAHQLP [Peptide 24]

staining / binding on NZW tissue [5]: no binding
staining on WHHL aortic tissue [2]: above-average reproducible staining
staining of corresponding WHHL tissue samples [2]: very little, if any, brown staining
staining of individual WHHL tissue sections [2]: best staining
Substance: TPLEVHPESLPW [Peptide 3]

positive binding / staining on WHHL tissue samples ([2]; Exp217 (FIG. 19)): stained
Substance: SIGYPLP [Peptide 13, reference compound]

More lines, now with the values behind:

Substance: TSPQTKDC [Peptide 7]
binding to aorta after in vivo circulation of peptide [1]: did not yield positive results
positive binding / staining on WHHL tissue samples ([2]; Exp201 (FIG. 18)): showed staining on one tissue sample
positive binding / staining on WHHL tissue samples ([2]; Exp217 (FIG. 19)): slight staining

Substance: Biotin-RNPGYTYHIALG [Peptide 4R]
staining on WHHL tissue, original versus randomized sequence [2]: much less staining compared to the original sequences

Substance: KSLSRHDHIHHH [Peptide 16]
positive binding / staining on WHHL tissue samples ([2]; Exp217 (FIG. 19)): stained

Substance: NADNQMTWRHVL [Peptide 38]
positive binding / staining on WHHL tissue samples ([2]; Exp223 (FIG. 21)): some staining

Substance: SSLPAPPWPLRG [Peptide 6]
positive binding / staining on WHHL tissue samples ([2]; Exp201 (FIG. 18)): showed staining on one tissue sample
positive binding / staining on WHHL tissue samples ([2]; Exp217 (FIG. 19)): slight staining

Substance: CKQSPPSMC [Peptide 14]
positive binding / staining on WHHL tissue samples ([2]; Exp217 (FIG. 19)): stained

Substance: CNHRYMQMC [Peptide 11, reference compound]
binding to atherosclerotic lesion endothelium of ApoE knockout mice in vivo [3]: shown to bind
positive binding / staining on WHHL tissue samples ([2]; Exp201 (FIG. 18)): showed staining on one tissue sample

Substance: CKQSFEKSC [Peptide 1]
positive binding / staining on WHHL tissue samples ([2]; Exp201 (FIG. 18)): showed staining on one tissue sample

Substance: Biotin-PPEEWSPVTHLL [Peptide 3R]
staining on WHHL tissue, original versus randomized sequence [2]: much less staining compared to the original sequences

Substance: NLTSLTQGSAML [Peptide 39]
positive binding / staining on WHHL tissue samples ([2]; Exp223 (FIG. 21)): some staining

Substance: CDSIKWPNC [Peptide 23]
binding to lipid-loaded HAECs (brown staining) [8]: negative result for binding

Substance: ILTHEHTLPKQ-FLAG (ILTHEHTLPKQ-{FLAG}) [Peptide 9R]
staining of frozen WHHL aorta tissue sections [6]: no staining; also recorded: no binding
